Measurements: US20230140216A1, “COMBINATION THERAPY FOR TREATING MPS1” (GAIN THERAPEUTICS SA, priority 2020, published 2023)

Experiments:
[1] = target: T1, Aldurazyme (laronidase) IDUA activity in bone marrow (Homo sapiens, UniProt P35475); test: IDUA assay in bone marrow after i.v. Aldurazyme with or without compound; format: in vivo, C57BL/6 male mice; conditions: mice, compound i.v. + Aldurazyme 1.2 mg/kg i.v.
T1 construct: purchased Aldurazyme; host or cells: administered i.v. to C57BL/6 male mice
T1 sequence (P35475 26-653 limits assumed): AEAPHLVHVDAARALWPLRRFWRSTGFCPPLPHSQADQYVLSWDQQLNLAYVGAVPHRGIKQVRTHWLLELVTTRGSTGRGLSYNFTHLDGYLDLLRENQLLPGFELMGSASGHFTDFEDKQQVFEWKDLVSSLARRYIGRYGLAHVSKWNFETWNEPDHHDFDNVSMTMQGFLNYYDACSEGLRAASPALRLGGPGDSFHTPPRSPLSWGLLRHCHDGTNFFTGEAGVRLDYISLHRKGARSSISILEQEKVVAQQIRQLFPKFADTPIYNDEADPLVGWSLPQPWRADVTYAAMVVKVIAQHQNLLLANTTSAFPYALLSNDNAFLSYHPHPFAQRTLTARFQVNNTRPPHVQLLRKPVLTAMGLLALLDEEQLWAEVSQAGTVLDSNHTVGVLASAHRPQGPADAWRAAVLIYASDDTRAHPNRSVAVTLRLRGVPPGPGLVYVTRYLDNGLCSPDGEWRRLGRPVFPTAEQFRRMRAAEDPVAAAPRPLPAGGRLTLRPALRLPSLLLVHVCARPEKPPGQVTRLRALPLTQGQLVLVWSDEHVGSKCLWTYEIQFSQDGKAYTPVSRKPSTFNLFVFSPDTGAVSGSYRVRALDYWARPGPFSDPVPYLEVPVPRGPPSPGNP
Procedure: Evaluation of IDUA activity in mouse bone joint cartilage samples obtained from BIO-PCY-19-025 study, where C57BL/6 male mice were administered with 1.2 mg/kg Aldurazyme (i.v. bolus administration) in the presence and absence of Compound A.
Groups Details: • G1: Vehicle 2 +Aldurazyme (1.2 mg/kg,i.v.,) QD×1(n=6) [vehicle 2:NMP (5%) + Solutol HS-15 (5%) + Normal saline (45%) + PEG-400 (45%)]; • G2: Compound A (5 mg/kg, i.v.) + Aldurazyme (1.2 mg/kg, i.v.) QD x 1 (n=6); • G3: Compound A (10 mg/kg, i.v.) + Aldurazyme (1.2 mg/kg, i.v.) QD x 1 (n=6); • G4: Compound A (20 mg/kg, i.v.) + Aldurazyme (1.2 mg/kg, i.v.) QD x 1 (n=6); and • G5: Naïve Control (n=6).
Bone marrow samples from mice were collected at indicated time points. After repeated freeze thaw cycles for protein extraction, bone marrow samples were diluted in formate buffer (0.4 M, pH 3.5). Total protein was estimated using Bradford reagent. 25 µl of tissue homogenate and plasma samples were added to 25 µl of 0.18 mM of 4 MUI substrate and incubated at 37° C. for 30 min. […] Plate was read at excitation 355 nm and emission 460 nm. […]
IDUA activity was assessed from 4-MU standard curve. […] Final IDUA enzyme activity was expressed as nmols/mg of protein/hr. Data was analyzed using GraphPad prism software with one way ANOVA followed by Dunnett’s comparison test. […]

[2] = tested on: Patient-derived fibroblasts; test: Enzyme enhancement activity in combination with rhIDUA in patient-derived fibroblasts; format: cell-based, human
Procedure: Patient-derived fibroblasts were seeded at 4×10^4 cells per well in 12-well cell culture plates in Dulbecco’s Modified Eagle’s Media (DMEM) supplemented with 10% of fetal bovine serum (FBS), 1% penicillin/streptomycin (P/S) (Thermo Fisher Scientific, Waltham, MA, USA) and incubated at 37° C., 5% CO2 overnight for cell attachment. Subsequently, cells were incubated in the absence or presence of the compounds and/or 1.25 nM recombinant human α-L-iduronidase protein (obtained in the Institute of Biotechnology and Biomedicine in the UAB) for 4 days. After incubation, cells were washed with phosphate-buffered saline (“PBS”) and detached using Trypsin-EDTA solution (Sigma Aldrich, St. Louis, MO, USA) to prepare cell pellets. The pellets were stored at -80° C. until activity assays were performed. α-L-iduronidase activity in cell lysates was measured by using 4-methylumbelliferyl alpha-L-iduronide substrate (Glycosynth, Warrington, UK). Briefly, lysates were resuspended in 25 µL of 0.9% NaCl containing 0.01% triton X-100 lysis buffer to promote membrane disruption. The cell suspension was sonicated and centrifuged to remove insoluble materials. Then, lysates were mixed with 25 µL of 200 µM 4-MU- alpha-L-iduronide substrate in 0.4 M sodium formate pH 3.5 0.2% triton X-100 buffer for 60 min at 37° C. The reaction was terminated by adding 200 µL of 0.5 M Glycine/0.3M NaOH buffer pH=10. The liberated 4-MU was measured on a Glomax® Discover Microplate Reader from Promega with excitation at 340 nm and emission at 460 nm. Protein quantification was determined using Pierce BCA Protein Assay Kit (Thermo Fisher Scientific, Waltham, MA, USA). Measurements were interpolated in a 4-MU standard curve and normalized by protein quantity.
Compound A increases uptake of rhIDUA protein and its enzymatic activity under a wide range of conditions (rhIDUA concentration and cell-types). Benefits are particularly evident at longer incubation times (4 days).

Which “IDUA enzymatic activity in bone marrow” value [1] does the source give for `CCN(CC(=O)Nc1c(Cl)cccc1Cl)Cc1nc2ccsc2c(=O)[nH]1` [Compound A] here?
Its value is “increases IDUA enzymatic activity in a panel of tissues”.

And the “activity across a panel of patient-derived fibroblasts” value ([2]; 96h)?
The value was “active across a panel of patient-derived fibroblasts”.

What about the “amount of α-L-iduronidase in fibroblasts” value ([2]; 96h) of the same compound?
The value was “increases the amount of α-L-iduronidase in fibroblasts”.

And the EC50 ([2]; Homo sapiens, Fibroblast, fibroblasts, 96h, co-administration with rhIDUA, read-out: cell-based EC50 (IDUA activity/uptake with rhIDUA))?
Its EC50 is 16 µM.

And the “IDUA cell uptake on co-administration” value ([2]; Hurler-Scheie fibroblasts, 50 µM compound, 96h, vs. single agent)?
Its value is “marked increase of IDUA cell uptake”.

And the “effect versus incubation time” value ([2]; fibroblasts)?
Its value is “increases at longer incubation times”.
